Data: PubChem BioAssay (NCI)
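Dose response: 5 concentrations. Exposure: 48 h. Format: 96-well plates. Endpoint: linear interpolation; highest concentration if not reached. TGI denotes the concentration required for complete inhibition of growth.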

Tests used:
Test in all cases: growth of human tumour cells (NCI), 48 h
[1] = system: MDA-MB-435
[2] = system: A498 renal
[3] = system: IGROV1 ovarian
[4] = system: LOX IMVI melanoma
[5] = system: PC-3 prostate
[6] = system: HCT-116 colon
[7] = system: DU-145 prostate
[8] = system: SF-268 CNS
[9] = system: U251 CNS
[10] = system: COLO 205 colon
[11] = system: NCI/ADR-RES ovarian
[12] = system: HCC-2998 colon
[13] = system: SR leukemia
[14] = system: NCI-H460 lung
[15] = system: UACC-257 melanoma
[16] = system: SNB-75 CNS
[17] = system: SNB-19 CNS
[18] = system: OVCAR-5 ovarian
[19] = system: SK-MEL-2 melanoma
[20] = system: HS 578T breast
[21] = system: OVCAR-3 ovarian
[22] = system: RXF 393 renal
[23] = system: CAKI-1 renal
[24] = system: SF-539 CNS
[25] = system: ACHN renal
[26] = system: NCI-H226 lung
[27] = system: BT-549 breast
[28] = system: MCF7 breast
[29] = system: K-562 leukemia
[30] = system: HOP-92 NSCLC
[31] = system: HOP-62 NSCLC
[32] = system: SK-OV-3 ovarian
[33] = system: UACC-62 melanoma
[34] = system: SK-MEL-5 melanoma
[35] = system: A549 NSCLC
[36] = system: 786-0 renal
[37] = system: HL-60(TB) leukemia
[38] = system: EKVX NSCLC
[39] = system: SF-295 CNS
[40] = system: MDA-MB-231 breast
[41] = system: MALME-3M melanoma
[42] = system: NCI-H522 lung
[43] = system: TK-10 renal
[44] = system: OVCAR-4 ovarian
[45] = system: MDA-N
[46] = system: SK-MEL-28 melanoma
[47] = system: RPMI-8226 leukemia
[48] = system: SN12C renal
[49] = system: SW-620 colon
[50] = system: NCI-H23 lung
[51] = system: HCT-15 colon
[52] = system: OVCAR-8 ovarian
[53] = system: UO-31 renal
[54] = system: HT29 colon
[55] = system: M14 melanoma
[56] = system: MOLT-4 leukemia
[57] = system: T-47D breast
[58] = system: KM12 colon

COc1ccc(NC(=S)Nc2ccccc2)cc1
TGI [1]: > 100 µM
TGI [2]: > 100 µM
TGI [3]: > 100 µM
TGI [4]: > 100 µM
TGI [5]: > 100 µM
TGI [6]: > 100 µM
TGI [7]: > 100 µM
TGI [8]: > 100 µM
TGI [9]: > 100 µM
TGI [10]: > 100 µM
TGI [11]: > 100 µM
TGI [12]: > 100 µM
TGI [13]: > 100 µM
TGI [14]: > 100 µM
TGI [15]: > 100 µM
TGI [16]: > 100 µM
TGI [17]: > 100 µM
TGI [18]: > 100 µM
TGI [19]: > 100 µM
TGI [20]: > 100 µM
TGI [21]: > 100 µM
TGI [22]: > 100 µM
TGI [23]: > 100 µM
TGI [24]: > 100 µM
TGI [25]: > 100 µM
TGI [26]: > 100 µM
TGI [27]: > 100 µM
TGI [28]: > 100 µM
TGI [29]: > 100 µM
TGI [30]: > 100 µM
TGI [31]: > 100 µM
TGI [32]: > 100 µM
TGI [33]: > 100 µM
TGI [34]: > 100 µM
TGI [35]: > 100 µM
TGI [36]: > 100 µM
TGI [37]: > 100 µM
TGI [38]: > 100 µM
TGI [39]: > 100 µM
TGI [40]: > 100 µM
TGI [41]: > 100 µM
TGI [42]: > 100 µM
TGI [43]: > 100 µM
TGI [44]: > 100 µM
TGI [45]: > 100 µM
TGI [46]: > 100 µM
TGI [47]: > 100 µM
TGI [48]: > 100 µM
TGI [49]: > 100 µM
TGI [50]: > 100 µM
TGI [51]: > 100 µM
TGI [52]: > 100 µM
TGI [53]: > 100 µM
TGI [54]: > 100 µM
TGI [55]: > 100 µM

COc1ccc(/C=C/c2cc(OC)c(OC)c(OC)c2)cc1O[Si](C)(C)C(C)(C)C
TGI [1]: 5.86 µM
TGI [2]: 94.1 µM
TGI [3]: > 100 µM
TGI [5]: > 100 µM
TGI [6]: 14.2 µM
TGI [7]: > 100 µM
TGI [8]: > 100 µM
TGI [9]: 26.6 µM
TGI [10]: 32.7 µM
TGI [12]: > 100 µM
TGI [14]: 13.4 µM
TGI [56]: 22.2 µM
TGI [15]: 37.3 µM
TGI [16]: > 100 µM
TGI [17]: > 100 µM
TGI [18]: > 100 µM
TGI [19]: > 100 µM
TGI [20]: 8.18 µM
TGI [22]: 9.02 µM
TGI [23]: > 100 µM
TGI [24]: 5.71 µM
TGI [25]: 34 µM
TGI [26]: 47.7 µM
TGI [27]: 64 µM
TGI [28]: 25.6 µM
TGI [30]: 85.4 µM
TGI [31]: > 100 µM
TGI [32]: > 100 µM
TGI [57]: > 100 µM
TGI [33]: 14.1 µM
TGI [34]: 4.44 µM
TGI [35]: > 100 µM
TGI [36]: 30.7 µM
TGI [38]: > 100 µM
TGI [39]: 83.8 µM
TGI [40]: > 100 µM
TGI [42]: 8.08 µM
TGI [43]: > 100 µM
TGI [44]: > 100 µM
TGI [45]: 6.25 µM
TGI [46]: > 100 µM
TGI [47]: 3.68 µM
TGI [48]: 74.5 µM
TGI [49]: 17.3 µM
TGI [50]: > 100 µM
TGI [51]: 21.7 µM
TGI [52]: 10.8 µM
TGI [53]: > 100 µM
TGI [54]: > 100 µM
TGI [55]: 29.3 µM

O=C1CSC(c2ccc([N+](=O)[O-])cc2)N1c1nc(-c2ccc3c(c2)CCCC3)cs1 (stereo not drawn)
TGI [1]: > 100 µM
TGI [2]: > 100 µM
TGI [3]: > 100 µM
TGI [4]: > 100 µM
TGI [5]: > 100 µM
TGI [6]: > 100 µM
TGI [7]: > 100 µM
TGI [8]: > 100 µM
TGI [9]: > 100 µM
TGI [10]: > 100 µM
TGI [11]: > 100 µM
TGI [12]: > 100 µM
TGI [13]: > 100 µM
TGI [14]: > 100 µM
TGI [56]: > 100 µM
TGI [15]: > 100 µM
TGI [16]: > 100 µM
TGI [17]: > 100 µM
TGI [18]: > 100 µM
TGI [19]: > 100 µM
TGI [20]: > 100 µM
TGI [21]: > 100 µM
TGI [22]: > 100 µM
TGI [23]: > 100 µM
TGI [24]: 81.8 µM
TGI [25]: > 100 µM
TGI [26]: > 100 µM
TGI [27]: > 100 µM
TGI [28]: > 100 µM
TGI [29]: > 100 µM
TGI [31]: > 100 µM
TGI [58]: > 100 µM
TGI [33]: > 100 µM
TGI [34]: > 100 µM
TGI [36]: > 100 µM
TGI [37]: > 100 µM
TGI [38]: > 100 µM
TGI [39]: > 100 µM
TGI [40]: > 100 µM
TGI [41]: > 100 µM
TGI [42]: > 100 µM
TGI [43]: > 100 µM
TGI [44]: > 100 µM
TGI [45]: > 100 µM
TGI [46]: > 100 µM
TGI [47]: > 100 µM
TGI [48]: > 100 µM
TGI [49]: > 100 µM
TGI [50]: > 100 µM
TGI [51]: > 100 µM
TGI [52]: > 100 µM
TGI [53]: > 100 µM
TGI [54]: > 100 µM
